Data set [1] addresses T1, N-type calcium channels in IMR-32 cells (Homo sapiens, UniProt Q00975).
T1 construct: host or cells: IMR-32 cells differentiated with dibutyryl cAMP and bromodeoxyuridine
In words: N-type Ca2+ channel blocking potency in IMR-32 cells using Indo-1. It is filed as cell-based. The note with it: for IC50: IMR-32 cells, 5 μM nitrendipine present, read-out: IMR32 IC50. As for the experimental part: Measurement of N-type Ca^2+ Channel Blocking Potencies of Compounds in IMR-32 Cells Using the Fluorescent Ca^2+ Indicator Indo-1
IMR-32 cells are a human tumoral cell line of neural origin. […] Calcium flux into these cells may be induced by stimulation with elevated potassium concentrations. The L-channel component of calcium flux may be blocked by adding 5 μM nitrendipine. The remaining component of calcium entry into the IMR-32 cells is due to calcium flux through N-type calcium channels. Intracellular calcium concentrations are measured using the fluorescent calcium indicator Indo-1. The effect of drug concentration on calcium uptake is studied.
The IMR-32 cell line was obtained from the American Type Culture Collection (Rockville, Md.). Cells were grown in Eagle's Minimum Essential Medium with Earle's salts supplemented with 10% fetal bovine serum, 2 mM L-Gln and antibiotic/antimycotic mixture (Gibco). At approximately 80% confluency, differentiation was induced by the addition of 1 mM dibutyryl cAMP and 2.5 μM bromodeoxyuridine to the medium. After 7 to 13 days of differentiation, cells were detached using 0.5 mM EDTA and loaded with 5 μM Indo-1 acetoxymethyl ester (Molecular Probes, Eugene, Oreg.) at 30° C. for 45 minutes. Loaded cells were washed twice, resuspended (˜10^7 cells/mL) in assay buffer (10 mM HEPES/Tris pH 7.4 in Hank's Balanced Salt Solution without bicarbonate or phenol red containing 0.5% bovine serum albumin) and kept on ice until use. Fluorescence measurements were carried out in a Photon Technology International (PTI, South Brunswick, N.J.) Model RF-F3004 spectrofluorometer with dual emission monochromators using excitation at 350 nm and emission at 400 and 490 nm. The instrument was equipped with a thermostated cuvette holder with stirring capabilities as well as with a computer-controlled pump which allowed for reagent addition during measurement. Instrument control and data collection was done by PTI's OSCAR software running on an IBM compatible computer. Different concentrations of the test compounds (60 μL in dimethyl sulfoxide) were added to 5.94 mL of assay buffer containing approximately 3×10^6 loaded cells, and 5 μM Nitrendipine (in 30 μL EtOH) to block L-type Ca^2+ channels. Samples were incubated for 10 minutes at 30° C. and the aliquot into three 10×10 mm disposable acrylic cuvettes. Emission signals at 400 and 490 nm were acquired from each cuvette at 30° C. for 50 seconds. At 20 seconds after the start of reading, cells were depolarized by the addition of 160 μL of stimulation solution (1 M KCl, 68 mM CaCl2) to the cuvette via the computer-controlled pump. Ratio of dual emission signals (400/490 nm), which is proportional to intracellular Ca^2+ concentration, was plotted against time, and the difference between maximal response after stimulation and basal value (before stimulation) was determined. Values obtained in this way were plotted as a function of drug concentration. IC50 values of test compounds were calculated by fitting a four-parameter logistic function to the data using the least squares method.

In data set [2] the target is T2, L-type calcium channels in A10 cells (Rattus norvegicus, UniProt P22002).
T2 construct: which endogenously expresses L-type calcium channels; host or cells: A10 rat embryonic thoracic aorta smooth muscle cells
In words: L-type Ca2+ channel blocking potency in A10 cells (FLIPR). It counts as cell-based. The note with it: read-out: FLPA10 IC50. As for the experimental part:
Measurement of L-type Ca^2+ Channel Blocking Potencies of Compounds in A10 Cells
Calcium flux through voltage-sensitive calcium channels was assessed by time-resolved monitoring of the fluorescence of pre-loaded calcium-sensitive dyes using FLIPR, a fluorescent image plate reader (Molecular Devices Co.). The A10 smooth muscle cell line derived from embryonic thoracic aorta of the DBIX rat (ATCC, CRL-1476) which endogenously expresses L-type calcium channels. The growth media for A10 cells was Ham's F12/DME high glucose (Irvine Scientific, 9052), supplemented with 20% fetal bovine serum (HyClone Labs, A-1115-L), and 1% each of L-glutamine and antibiotic-antimycotic (same source as above).
Cells were grown to confluency and replated on black-sided 96-well plates (Costar, 3603) for use in FLIPR. Two days after replating, growth media was removed and cells were loaded at 37° C. with 100 μL media containing 1 μM Oregon Green 488 Bapta-1 dye (Molecular Probes, O-6807) for 1 to 3 hours. The dye-containing media was then washed away with buffer (composition in mM: 1.25 CaCl2, 1.2 MgSO4, 11 glucose, 10 HEPES, 3.0 KCl, 137.0 NaCl, pH 7.4 with Tris base) in a Denley Cellwash (Labsystems, CW018B). The residual buffer volume was adjusted to 50 μL. A 5 minute drug-pre-incubation period at 35° C. was initiated when 50 μL of drug-containing buffer was pipetted into the cell plate with the 96-well pipettor integrated in the FLIPR apparatus. Fluorescent counts were monitored at 20 second intervals for 360 seconds, beginning 60 seconds prior to the delivery of drug-containing buffer. Following drug addition, 100 μL aliquots of a high K^+, depolarizing stimulus (composition in mM: 1.25 CaCl2, 1.2 MgSO4, 11 glucose, 10 HEPES, 140.0 KCl, pH 7.4 with Tris base) were added to each well, and fluorescence was monitored at 1 second intervals for 120 seconds beginning 10 seconds prior to the stimulus addition. CCD camera exposure time was 0.4 seconds, laser excitation was at 488 nm with a power of 0.2-0.5W, and a 510 to 560 nm bandpass interference filter preceded the camera.
Data was analyzed as a summation of fluorescent counts above basal during the stimulation period (an approximation of area under the curve), after normalizing the data with a spatial uniformity correction (for variations in laser illumination and cell density) and a negative control correction (zero calcium increase defined as the fluorescence reading in the presence of saturating pharmacologic block of the respective calcium channel). Drug effects were expressed as percent inhibition of fluorescence from an average of 8 K^+-stimulated wells which were pre-treated in the drug incubation period with buffer only. In the A10 cells, the pharmacologic agent used to define zero calcium influx was nitrendipine (RBI, N-144) at a final concentration of 1.0×10^−6 M.

Where a name gives a salt, the structure may show the parent alone.

What is called melting point is the temperature of the solid-liquid transition. Usually IC50 stands for the concentration needed to halve the response being measured.

T1 sequence (Q00975 whole entry): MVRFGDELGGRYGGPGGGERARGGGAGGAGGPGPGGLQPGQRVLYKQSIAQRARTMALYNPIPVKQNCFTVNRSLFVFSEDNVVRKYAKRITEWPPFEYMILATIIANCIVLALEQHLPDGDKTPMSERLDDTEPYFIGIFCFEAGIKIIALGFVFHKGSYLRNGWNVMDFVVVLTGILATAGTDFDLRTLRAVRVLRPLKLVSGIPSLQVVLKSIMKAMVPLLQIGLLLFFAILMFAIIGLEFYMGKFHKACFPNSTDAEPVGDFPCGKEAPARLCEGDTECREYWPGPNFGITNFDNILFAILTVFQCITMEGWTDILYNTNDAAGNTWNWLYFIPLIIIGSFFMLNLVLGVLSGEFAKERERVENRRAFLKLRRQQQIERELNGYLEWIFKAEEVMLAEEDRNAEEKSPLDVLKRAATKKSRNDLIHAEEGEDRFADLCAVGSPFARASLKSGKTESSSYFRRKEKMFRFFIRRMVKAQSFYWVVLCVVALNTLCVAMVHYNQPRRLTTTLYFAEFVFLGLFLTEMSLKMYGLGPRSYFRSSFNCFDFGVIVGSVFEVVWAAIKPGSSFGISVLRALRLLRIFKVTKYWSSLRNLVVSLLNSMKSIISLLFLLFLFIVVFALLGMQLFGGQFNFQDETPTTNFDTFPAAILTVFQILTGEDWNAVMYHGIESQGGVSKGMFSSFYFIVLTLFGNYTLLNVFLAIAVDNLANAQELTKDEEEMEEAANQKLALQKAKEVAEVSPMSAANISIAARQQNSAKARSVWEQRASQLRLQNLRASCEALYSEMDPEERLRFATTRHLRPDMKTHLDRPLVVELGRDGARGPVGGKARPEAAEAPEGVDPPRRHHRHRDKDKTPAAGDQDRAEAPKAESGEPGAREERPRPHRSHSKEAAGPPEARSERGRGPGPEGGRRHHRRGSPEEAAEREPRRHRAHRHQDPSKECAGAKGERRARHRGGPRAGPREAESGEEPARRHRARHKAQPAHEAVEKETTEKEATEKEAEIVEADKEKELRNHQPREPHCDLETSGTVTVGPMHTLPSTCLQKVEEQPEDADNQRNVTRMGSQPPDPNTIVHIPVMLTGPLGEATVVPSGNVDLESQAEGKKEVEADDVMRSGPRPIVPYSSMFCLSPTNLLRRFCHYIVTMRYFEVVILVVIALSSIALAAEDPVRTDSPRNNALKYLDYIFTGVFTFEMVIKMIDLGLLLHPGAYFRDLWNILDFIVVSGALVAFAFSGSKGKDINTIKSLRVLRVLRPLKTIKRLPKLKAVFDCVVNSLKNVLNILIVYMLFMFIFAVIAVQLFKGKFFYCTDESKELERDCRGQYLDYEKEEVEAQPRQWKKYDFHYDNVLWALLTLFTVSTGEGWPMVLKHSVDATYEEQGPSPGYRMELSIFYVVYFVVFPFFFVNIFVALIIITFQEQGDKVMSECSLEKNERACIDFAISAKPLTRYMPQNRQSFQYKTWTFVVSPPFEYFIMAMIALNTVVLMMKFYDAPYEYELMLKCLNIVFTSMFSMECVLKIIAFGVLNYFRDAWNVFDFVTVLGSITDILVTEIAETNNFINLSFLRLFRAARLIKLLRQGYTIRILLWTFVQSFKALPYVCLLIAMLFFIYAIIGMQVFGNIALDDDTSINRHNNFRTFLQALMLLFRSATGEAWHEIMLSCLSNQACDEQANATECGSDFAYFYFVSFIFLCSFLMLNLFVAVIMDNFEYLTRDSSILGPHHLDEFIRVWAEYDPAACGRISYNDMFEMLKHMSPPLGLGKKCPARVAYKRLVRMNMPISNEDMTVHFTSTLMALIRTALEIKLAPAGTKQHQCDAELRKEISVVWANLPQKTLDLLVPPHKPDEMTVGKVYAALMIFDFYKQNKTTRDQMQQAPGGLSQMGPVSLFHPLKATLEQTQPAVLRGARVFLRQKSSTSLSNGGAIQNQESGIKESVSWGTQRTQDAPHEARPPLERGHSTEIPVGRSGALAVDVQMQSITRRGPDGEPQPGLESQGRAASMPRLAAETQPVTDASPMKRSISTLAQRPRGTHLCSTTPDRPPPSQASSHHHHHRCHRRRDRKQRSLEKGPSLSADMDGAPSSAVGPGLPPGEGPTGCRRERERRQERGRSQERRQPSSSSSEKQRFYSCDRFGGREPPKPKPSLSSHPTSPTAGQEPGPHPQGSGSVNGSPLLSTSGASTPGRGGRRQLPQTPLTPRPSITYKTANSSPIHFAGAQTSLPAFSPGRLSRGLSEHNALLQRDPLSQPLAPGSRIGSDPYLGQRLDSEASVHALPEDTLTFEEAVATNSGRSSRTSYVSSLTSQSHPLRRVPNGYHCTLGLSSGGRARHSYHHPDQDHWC
T1 sequence (P54289 25-956 partner limits assumed): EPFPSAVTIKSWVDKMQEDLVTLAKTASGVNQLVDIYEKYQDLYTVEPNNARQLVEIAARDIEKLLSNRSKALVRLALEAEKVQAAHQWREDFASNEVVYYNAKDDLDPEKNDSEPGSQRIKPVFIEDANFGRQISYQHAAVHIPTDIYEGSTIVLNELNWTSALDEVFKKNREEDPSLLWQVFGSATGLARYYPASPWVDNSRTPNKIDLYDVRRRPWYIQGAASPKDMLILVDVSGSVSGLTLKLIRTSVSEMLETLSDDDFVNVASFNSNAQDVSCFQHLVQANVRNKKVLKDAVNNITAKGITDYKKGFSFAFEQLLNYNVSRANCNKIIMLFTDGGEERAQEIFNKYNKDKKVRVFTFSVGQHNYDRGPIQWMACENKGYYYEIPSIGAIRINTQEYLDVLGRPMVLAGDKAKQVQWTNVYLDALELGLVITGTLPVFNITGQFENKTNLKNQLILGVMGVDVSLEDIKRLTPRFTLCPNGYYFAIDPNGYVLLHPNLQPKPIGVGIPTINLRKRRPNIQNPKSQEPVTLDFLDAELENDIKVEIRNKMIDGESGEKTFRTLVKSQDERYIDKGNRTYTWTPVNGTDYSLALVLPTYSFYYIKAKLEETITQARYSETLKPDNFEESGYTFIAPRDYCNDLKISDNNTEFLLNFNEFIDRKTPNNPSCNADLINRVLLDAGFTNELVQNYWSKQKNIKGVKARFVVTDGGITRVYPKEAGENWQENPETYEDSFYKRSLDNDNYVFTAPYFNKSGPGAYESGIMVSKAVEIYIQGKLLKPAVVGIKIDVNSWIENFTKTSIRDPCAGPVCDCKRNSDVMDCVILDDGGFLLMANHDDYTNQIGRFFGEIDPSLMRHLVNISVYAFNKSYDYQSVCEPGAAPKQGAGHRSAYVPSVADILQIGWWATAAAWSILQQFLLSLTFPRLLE
T1 sequence (P54289 957-1103 partner limits assumed): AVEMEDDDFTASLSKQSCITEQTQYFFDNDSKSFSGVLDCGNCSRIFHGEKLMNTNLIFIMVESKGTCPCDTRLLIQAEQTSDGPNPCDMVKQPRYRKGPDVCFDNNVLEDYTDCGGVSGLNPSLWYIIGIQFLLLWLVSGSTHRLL
T1 sequence (Q02641 whole entry partner): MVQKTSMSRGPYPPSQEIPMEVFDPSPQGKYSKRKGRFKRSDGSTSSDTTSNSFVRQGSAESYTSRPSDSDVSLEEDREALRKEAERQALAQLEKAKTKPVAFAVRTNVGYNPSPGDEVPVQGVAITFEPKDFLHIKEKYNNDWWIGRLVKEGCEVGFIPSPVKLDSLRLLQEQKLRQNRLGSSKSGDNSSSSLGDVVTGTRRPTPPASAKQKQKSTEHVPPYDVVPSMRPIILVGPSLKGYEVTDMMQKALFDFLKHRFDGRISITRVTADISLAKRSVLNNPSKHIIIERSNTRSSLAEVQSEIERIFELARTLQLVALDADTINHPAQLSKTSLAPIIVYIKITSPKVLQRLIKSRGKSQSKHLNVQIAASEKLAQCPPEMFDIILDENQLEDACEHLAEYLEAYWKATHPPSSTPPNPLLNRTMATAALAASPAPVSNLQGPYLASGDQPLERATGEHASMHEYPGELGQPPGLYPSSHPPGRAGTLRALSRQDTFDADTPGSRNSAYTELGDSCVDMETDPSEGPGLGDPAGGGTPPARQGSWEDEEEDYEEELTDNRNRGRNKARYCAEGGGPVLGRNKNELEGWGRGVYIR

Consider `CC(C)=CCN(C)[C@@H](CC(C)C)C(=O)NCCCC(c1ccc(F)cc1)c1ccc(F)cc1` (as salt: hydrochloride) [Example 13, (S)-4-Methyl-2-[methyl-(3-methyl-but-2-enyl)-amino]-pentanoic acid [4,4-bis-(4-fluoro-phenyl)-butyl]-amide monohydrochloride], for which the melting point was in the range of 55 to 68 °C. On to `CC(C)C[C@H](NC(C)C)C(=O)NCCCC(c1ccc(F)cc1)c1ccc(F)cc1` (as salt: hydrochloride) [Example 19, (S)-2-Isopropylamino-4-methyl-pentanoic acid [4,4-bis-(4-fluoro-phenyl)-butyl]-amide monohydrochloride], for which the melting point was 100 to 103 °C. Still for that read-out and setting: as for `CC(C)C[C@@H](C(=O)NCCCC(c1ccc(F)cc1)c1ccc(F)cc1)N(C)C` (as salt: hydrochloride) [Example 20, (S)-2-Dimethylamino-4-methyl-pentanoic acid [4,4-bis-(4-fluoro-phenyl)-butyl]-amide monohydrochloride], the figure is 60 to 72 °C.

Consider `CC(C)C[C@@H](C(=O)NCCCC(c1ccc(F)cc1)c1ccc(F)cc1)N(C)C1CCCCC1` (as salt: hydrochloride) [Example 21, (S)-2-(Cyclohexyl-methyl-amino)-4-methyl-pentanoic acid [4,4-bis-(4-fluoro-phenyl)-butyl]-amide monohydrochloride], for which the melting point was 73 to 83 °C.

For the compound `CC(C)C[C@@H](C(=O)NCCCC(c1ccc(F)cc1)c1ccc(F)cc1)N1CCOCC1` (as salt: hydrochloride) [Example 23, (S)-4-Methyl-2-morpholin-4-yl-pentanoic acid [4,4-bis-(4-fluoro-phenyl)-butyl]-amide monohydrochloride], the melting point is 63 to 78 °C.

As for `CC(C)C[C@@H](C(=O)NCCC(c1ccccc1)c1ccccc1)N(C)C1CCCCC1` (as salt: hydrochloride) [Example 25, (S)-2-(Cyclohexyl-methyl-amino)-4-methyl-pentanoic acid (3,3-diphenyl-propyl)-amide monohydrochloride], the melting point fell in the range of 67 to 86 °C. On to `CC(C)C[C@@H](C(=O)NCCCC(c1ccc(F)cc1)c1ccc(F)cc1)N(C)C1CCOCC1` (as salt: hydrochloride) [Example 27, (S)-4-Methyl-2-[methyl-(tetrahydro-pyran-4-yl)-amino]-pentanoic acid [4,4-bis-(4-fluoro-phenyl)-butyl]-amide monohydrochloride], for which the melting point is 75 to 92 °C. `CC(C)C[C@H](NC(C)C)C(=O)N1CCN(C(c2ccc(F)cc2)c2ccc(F)cc2)CC1` (as salt: hydrochloride) [Example 49, (S)-1-{4-[Bis-(4-fluoro-phenyl)-methyl]-piperazin-1-yl}-2-isopropylamino-4-methyl-pentan-1-one monohydrochloride] yielded a melting point of 100 to 103 °C.

`CC(C)N[C@H](C(=O)NCCCC(c1ccc(F)cc1)c1ccc(F)cc1)C(C)C` (as salt: hydrochloride) [Example 65, (S)-N-[4,4-Bis-(4-fluoro-phenyl)-butyl]-2-isopropylamino-3-methyl-butyramide] showed a melting point of 72 to 80 °C.

Turning to `CCC(C)N[C@H](C(=O)NCCCC(c1ccc(F)cc1)c1ccc(F)cc1)C(C)C` (stereo partly drawn) (as salt: hydrochloride) [Example 66, (S)-N-[4,4-Bis-(4-fluoro-phenyl)-butyl]-2-sec-butylamino-3-methyl-butyramide], the melting point was in the range of 77 to 81 °C. `CC(C)C[C@@H](C(=O)NCCCC(c1ccc(F)cc1)c1ccc(F)cc1)N(C)C(C)C` (as salt: hydrochloride) [Example 68, (S)-2-(Isopropyl-methyl-amino)-4-methyl-pentanoic acid [4,4-bis-(4-fluoro-phenyl)-butyl]-amide] came in with a melting point of 155 to 156 °C. Same read-out and setting: as for `CC(C)[C@@H](C(=O)NCCCC(c1ccc(F)cc1)c1ccc(F)cc1)N(C)C1CCCCC1` (as salt: hydrochloride) [Example 69, (S)-N-[4,4-Bis-(4-fluoro-phenyl)-butyl]-2-(cyclohexyl-methyl-amino)-3-methyl-butyramide], the figure is 82 to 86 °C. As for `CC(C)[C@H](NC1CCCCC1)C(=O)NCCCC(c1ccc(F)cc1)c1ccc(F)cc1` (as salt: hydrochloride) [Example 70, (S)-N-[4,4-Bis-(4-fluoro-phenyl)-butyl]-2-cyclohexylamino-3-methyl-butyramide], the melting point was 49 to 53 °C. The same measure, in the same setting: as for `CN[C@H](C(=O)NCCCC(c1ccc(F)cc1)c1ccc(F)cc1)C(C)C` (as salt: hydrochloride) [Example 73, (S)-3-Methyl-2-methylamino-butanoic acid [4,4-bis-(4-fluorophenyl)-butyl]-amide monohydrochloride], the figure is 85 to 90 °C. In turn, `CC(C)C[C@H](NC(=O)N1CCCCCC1)C(=O)NCC(c1ccccc1)c1ccccc1` [Example 4, (S)-Azepane-1-carboxylic acid [1-(2,2-diphenyl-ethylcarbamoyl)-3-methyl-butyl]-amide] displayed a melting point of 194 to 195 °C. Further, the IC50 in data set [1] was found to be 3300 nM.

For `CC(C)C[C@H](NC(=O)N1CCCCCC1)C(=O)NCCC(c1ccccc1)c1ccccc1` [Example 5, (S)-Azepane-1-carboxylic acid [1-(3,3-diphenyl-propylcarbamoyl)-3-methyl-butyl]-amide], the melting point lay in the range of 144 to 145 °C. Besides, in data set [1], the IC50 stood at 1800 nM.

On to `CC(C)[C@@H](C(=O)NCCCC(c1ccc(F)cc1)c1ccc(F)cc1)N(C)C1CCCCC1` [Example 69, (S)-N-[4,4-Bis-(4-fluoro-phenyl)-butyl]-2-(cyclohexyl-methyl-amino)-3-methyl-butyramide], for which the inhibition at 1 µM in data set [1] (IMR-32, IMR-32 cells, at 1 μM, read-out: IMR32 % blockage at 1 μM) was found to be 34%. Moreover, the inhibition at 10 µM in data set [1] (IMR-32, IMR-32 cells, at 10 μM, read-out: IMR32 % blockage at 10 μM) is 99%. In addition, the IC50 in data set [2] turned out to be 400 nM.

The values are drawn from US6458781B1, “Substituted diarylalkyl amides as calcium channel antagonists” (priority 1998, dated 2002).
